Experimental data from ChEMBL document CHEMBL3217707, “A matched molecular pair analysis of in vitro human microsomal metabolic stability measurements for heterocyclic replacements of di-substituted benzene containing compounds identification of those isosteres more likely to have beneficial effects” (Medchemcomm, 2012).

Key:
[1] = Intrinsic clearance in human liver microsomes after 30 mins; type: ADME; conditions: read-out: CLH
[2] = Lipophilicity, log D of the compound at pH 7.4; conditions: buffer

Work on `CC(C)(C)OC(=O)N1CCN(c2ccc(OCc3ccc(S(C)(=O)=O)cc3)cc2)CC1` yielded a microsomal CLint [1] of 62.6 µL/min/mg and a logD [2] of 3.9.
Work on `CC(C)(C)OC(=O)N1CCN(c2ccc(OCc3ccc(S(C)(=O)=O)cc3)nn2)CC1` yielded a microsomal CLint [1] of 139 µL/min/mg and a logD [2] of 2.8.
For `CC(C)(C)OC(=O)N1CCN(c2cnc(OCc3ccc(S(C)(=O)=O)cc3)cn2)CC1`, the microsomal CLint [1] was 29.9 µL/min/mg and the logD [2] was 3.4.
`CC(C)(C)OC(=O)N1CCN(c2ncc(OCc3ccc(S(C)(=O)=O)cc3)cn2)CC1` showed a microsomal CLint [1] of 60 µL/min/mg.
For `CC(C)(C)OC(=O)N1CCN(c2ccc(OCc3ccc(S(C)(=O)=O)cc3)cn2)CC1`, the microsomal CLint [1] was 247 µL/min/mg and the logD [2] was 3.2.
`CC(C)(C)OC(=O)N1CCN(c2ccc(OCc3ccc(S(C)(=O)=O)cc3)nc2)CC1` showed a microsomal CLint [1] of 105 µL/min/mg.
`CC(C)(C)OC(=O)N1CCN(c2ncc(OCc3ccc(S(C)(=O)=O)cc3)nn2)CC1` gave a microsomal CLint [1] of 131 µL/min/mg and a logD [2] of 2.9.
`CC(C)(C)OC(=O)N1CCN(c2cnc(OCc3ccc(S(C)(=O)=O)cc3)nc2)CC1` showed a microsomal CLint [1] of 86.8 µL/min/mg.
